From US10676467B2 (Washington University, priority 2017, dated 2020) come the findings set out here.

The target of one series is recombinant human S1P1 (Homo sapiens (Human), UniProt P21453). The experiment in a line: [32P]S1P competitive binding assay on cell membranes.
The next series deals with S1P2 (Homo sapiens (Human), UniProt O95136). The description is as above. To be noted: competition against [32P]S1P, mean ± SD.
The next series addresses S1P3 (Homo sapiens (Human), UniProt Q99500). The description is as above. To be noted: competition against [32P]S1P, mean ± SD.
The target of another series is S1P4 (Homo sapiens (Human), UniProt O95977). Described as above.
For another series, the target named is S1P5 (Homo sapiens (Human), UniProt Q9H228). The description is as above.
The target in the next series is S1P2-S1P5. Nature of the series: [32P]S1P competitive binding assay, other subtypes reported together. Also noted: species or system human. To be noted: one bound for all four subtypes.
The next series concerns the target S1P1 (Rattus norvegicus (Rat), UniProt P48303). Nature of the series: MicroPET and tracer kinetic modeling in EAE rat model, lumbar spinal cord. It is filed as in vivo. Conditions: for 2TCM Vd / LoganAIF Vd: lumbar spinal cord, n = 3-4.
A short description of series [1]: Nonhuman primate (NHP) brain microPET scan. It is filed as in vivo, macaques. Conditions: normal NHP. As for the experimental part: To examine if newly-synthesized S1P1 radioligands could cross the BBB of NHPs, two male macaques (9-10 kg) were studied with a microPET Focus 220 scanner (Concorde/CTI/Siemens Microsystems, Knoxville, Tenn.). The welfare of the animals conformed to the requirements of National Institutes of Health (NIH). This work was conducted at the Nonhuman Primate Facility of Washington University in St. Louis with approval from the IACUC. Animals were maintained in facilities with 12-hour dark and light cycles, given access to food and water ad libitum and provided a variety of psychologically enriching tasks to prevent inappropriate deprivation. Animals were scanned under anesthesia (induced with ketamine and glycopyrrolate and maintained with inhalation isoflurane). Core temperature was kept about 37° C. with a heated water blanket. The head was secured in a head holder with the brain in the center of the field of view.
PET scans were collected from O-120 min with the following time frames: 3×1 min, 4×2 min, 3×3 min and 20×5 min. Emission data were corrected for dead time, scatter and attenuation and then reconstructed to a final resolution of 2.0 mm full-width half maximum in all 3 dimensions at the center of the field of view. PET and MRI images were co-registered using automated image registration program (AIR). For quantitative analyses, three-dimensional ROI (the global brain) was identified on the MRI and transformed to the reconstructed PET images to obtain time-activity curves. Activity measures were standardized to body weight and the dose of radioactivity injected to yield standardized uptake value (SUV).

Where “and” joins values, the source holds several entries; their conditions need not be identical. Equal entries are not always repeated. Entries after “also recorded” stand apart in the source; their conditions may differ. Where two headings read alike, the source gives them in different places. A value given as a limit tells only on which side of the number the result lay.

Sequence of S1P1 (P48303 whole entry): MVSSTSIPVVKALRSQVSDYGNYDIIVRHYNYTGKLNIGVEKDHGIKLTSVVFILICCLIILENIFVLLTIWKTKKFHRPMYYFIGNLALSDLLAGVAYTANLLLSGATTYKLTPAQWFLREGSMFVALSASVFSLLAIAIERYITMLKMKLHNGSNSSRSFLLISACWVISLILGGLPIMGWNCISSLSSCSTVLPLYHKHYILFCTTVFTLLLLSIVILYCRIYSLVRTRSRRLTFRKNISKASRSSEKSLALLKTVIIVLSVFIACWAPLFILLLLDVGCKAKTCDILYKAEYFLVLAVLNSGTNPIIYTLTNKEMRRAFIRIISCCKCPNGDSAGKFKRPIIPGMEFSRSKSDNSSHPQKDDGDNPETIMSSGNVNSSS
Sequence of recombinant human S1P1 (P21453 whole entry): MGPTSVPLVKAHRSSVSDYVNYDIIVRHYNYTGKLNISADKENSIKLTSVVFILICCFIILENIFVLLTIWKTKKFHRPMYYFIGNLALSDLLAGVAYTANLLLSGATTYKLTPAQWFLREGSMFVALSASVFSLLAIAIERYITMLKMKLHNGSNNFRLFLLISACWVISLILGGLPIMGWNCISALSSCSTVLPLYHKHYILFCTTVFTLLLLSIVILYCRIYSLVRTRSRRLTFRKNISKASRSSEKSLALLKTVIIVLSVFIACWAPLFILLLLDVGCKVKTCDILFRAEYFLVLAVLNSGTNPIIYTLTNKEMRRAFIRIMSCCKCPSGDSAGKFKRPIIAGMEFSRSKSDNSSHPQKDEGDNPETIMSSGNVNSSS
Sequence of S1P5 (Q9H228 whole entry): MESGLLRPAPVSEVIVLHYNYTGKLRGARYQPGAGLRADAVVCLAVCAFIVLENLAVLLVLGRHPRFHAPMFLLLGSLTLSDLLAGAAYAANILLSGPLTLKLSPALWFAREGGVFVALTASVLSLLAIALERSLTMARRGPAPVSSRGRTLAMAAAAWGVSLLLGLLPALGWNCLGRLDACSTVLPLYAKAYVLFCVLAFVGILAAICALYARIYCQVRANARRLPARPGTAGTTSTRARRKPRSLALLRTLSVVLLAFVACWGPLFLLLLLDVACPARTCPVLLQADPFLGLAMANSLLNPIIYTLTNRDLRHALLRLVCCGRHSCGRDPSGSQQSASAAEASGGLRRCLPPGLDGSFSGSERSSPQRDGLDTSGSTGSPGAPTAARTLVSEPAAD
Sequence of S1P4 (O95977 whole entry): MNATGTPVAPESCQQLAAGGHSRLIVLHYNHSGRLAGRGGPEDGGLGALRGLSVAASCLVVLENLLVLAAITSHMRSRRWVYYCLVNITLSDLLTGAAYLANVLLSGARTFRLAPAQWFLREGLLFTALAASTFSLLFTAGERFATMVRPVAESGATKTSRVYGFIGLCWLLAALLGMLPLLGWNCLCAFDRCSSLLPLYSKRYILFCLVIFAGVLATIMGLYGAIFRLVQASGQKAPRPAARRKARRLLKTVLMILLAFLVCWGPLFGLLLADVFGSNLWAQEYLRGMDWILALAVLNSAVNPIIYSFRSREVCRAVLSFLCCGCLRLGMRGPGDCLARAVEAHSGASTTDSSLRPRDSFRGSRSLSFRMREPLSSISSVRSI
Sequence of S1P2 (O95136 whole entry): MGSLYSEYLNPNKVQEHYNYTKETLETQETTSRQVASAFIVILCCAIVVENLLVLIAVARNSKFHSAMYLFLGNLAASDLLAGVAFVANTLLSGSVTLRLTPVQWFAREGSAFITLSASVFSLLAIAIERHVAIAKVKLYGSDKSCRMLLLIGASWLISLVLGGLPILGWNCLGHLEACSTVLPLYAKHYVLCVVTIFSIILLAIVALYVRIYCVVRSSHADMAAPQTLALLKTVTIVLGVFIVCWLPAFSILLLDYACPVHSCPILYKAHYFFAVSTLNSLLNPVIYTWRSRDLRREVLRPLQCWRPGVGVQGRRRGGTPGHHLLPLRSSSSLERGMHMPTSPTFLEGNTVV
Sequence of S1P3 (Q99500 whole entry): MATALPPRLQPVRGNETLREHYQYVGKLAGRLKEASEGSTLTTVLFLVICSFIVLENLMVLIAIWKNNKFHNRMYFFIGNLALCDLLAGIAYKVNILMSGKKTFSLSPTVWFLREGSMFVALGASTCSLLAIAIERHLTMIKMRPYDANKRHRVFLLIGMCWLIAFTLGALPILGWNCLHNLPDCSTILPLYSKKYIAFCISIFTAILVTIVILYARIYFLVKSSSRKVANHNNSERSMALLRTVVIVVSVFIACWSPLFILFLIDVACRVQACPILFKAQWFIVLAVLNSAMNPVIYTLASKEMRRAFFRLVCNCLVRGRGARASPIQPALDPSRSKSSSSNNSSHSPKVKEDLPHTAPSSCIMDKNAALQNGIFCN
Experimental for S1P2-S1P5: (§1) Competitive binding was performed for 60 min at room temperature and terminated by collecting the membranes onto 96-well glass fiber (GF/B) filtration plates (Millipore, Billerica, Mass.). Each filter was washed with 200 μL of assay buffer for five times. The filter bound radionuclide was measured by a Beckman LS3801 scintillation counter using Cherenkov counting. The reported IC50 values were calculated using the 4 parameter equation, least-square non-linear regression curve-fit, with GraphPad Prism software (GraphPad Software, Inc). Each assay was repeated at least three times with duplicate wells for each compound; the reported values (mean±SD, nM) are calculated from the average of all assays.
Experimental for S1P3: as §1
Experimental for S1P4: as §1
Experimental for recombinant human S1P1: as §1

For the compound `OCc1cn(Cc2ccc(-c3noc(-c4ccc(OCCF)c(C(F)(F)F)c4)n3)cc2)nn1` [Compound 22b, (1-(4-(5-(4-(2-Fluoroethoxy)-3-(trifluoromethyl)phenyl)-1,2,4-oxadiazol-3-yl)benzyl)-1H-1,2,3-triazol-4-yl)met-hanol], the IC50 was 9.8 nM at recombinant human S1P1 (Table 9, avg, n = 2-3, read-out: S1P1 IC50, second value in parentheses (average) (converted)); 9.7 nM and 9.65 nM at recombinant human S1P1 (competition against [32P]S1P, membranes with recombinant human S1P1, mean ± SD, listed as TZ43113, read-out: S1P1 IC50 ± SD); 9.65 ± 1.61 nM at recombinant human S1P1 (competition against [32P]S1P, membranes with recombinant human S1P1, mean ± SD, listed as TZ-43-113, read-out: S1P1 IC50 ± SD); 9.7 ± 1.6 nM at recombinant human S1P1 (competition against [32P]S1P, membranes with recombinant human S1P1, mean ± SD, read-out: S1P1 IC50 ± SD); less than 20 nM at recombinant human S1P1 (read-out: S1P1 IC50 ± SD); greater than 1000 nM on S1P2. Also, the IC50 at S1P3, at S1P4, on S1P5 and on S1P2-S1P5 was greater than 1000 nM throughout. At recombinant human S1P1 (vs corresponding acid 22a), the “Fold decreased S1P1 IC50 compared to 22a” value is given as 35 fold.

On to `OCCOCCOCc1ccc(-c2noc(-c3ccc(OCC[18F])c(C(F)(F)F)c3)n2)cc1` [[^18F]12b], for which the “Visualization of rat lumbar spinal cord by microPET” value on S1P1 (EAE and sham rats) is given as “clear visualization of lumbar spinal cord”. In addition, on S1P1 (EAE rats), the “2TCM Vd” value amounted to 2.30 ± 0.13 mL/g and the “LoganAIF Vd” value came to 2.27 ± 0.18 mL/g. At S1P1 (EAE rats, summed SUV values 10-60 min post injection, n=3-4), the “Tracer uptake in lumbar spinal cord, EAE” value is reported as 1.20±0.04 SUV. Besides, on S1P1 (Sham rats), the “2TCM Vd” value came out at 1.76 ± 0.19 mL/g and the “LoganAIF Vd” value came out at 1.75 ± 0.21 mL/g. The “Increase of tracer uptake in EAE rat lumbar spinal cord compared with shams” value at S1P1 (microPET, 10-60 min post injection) is reported as 22.9%. Moreover, the “Averaged tracer uptake in sham rat spinal cord” value at S1P1 (sham rats, 10-60 min post injection) is listed as 1.0-1.1. For the same compound, the “Tracer uptake in lumbar spinal cord, sham” value on S1P1 (sham rats, summed SUV values 10-60 min post injection, n=3-4) was determined as 0.98±0.09 SUV. Besides, the “Max SUV value in total brain” value in series [1] (microPET) is recorded as roughly 2.4 SUV. Besides, in series [1] (microPET, listed as 18F-TZ4881), the “Blood-brain barrier crossing, NHP brain” value is listed as “able to cross the blood brain barrier; also recorded: able to cross the BBB”. In series [1] (post injection), the “Time to max SUV in total brain” value is reported as roughly 5 min.
